# From PubChem BioAssay (NCI)
#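 Growth conditions: 96-well plates. Treatment: test compound, 48 hours, 5 concentrations. Analysis: linear interpolation between bracketing concentrations; unreached endpoints set to highest concentration. GI50 is the concentration that inhibits growth by half. TGI denotes the concentration required for complete inhibition of growth.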
# Experiments:
# Assay in all cases: inhibition of tumour cell growth, NCI panel, 48 h
# 786-0 renal = system: 786-0 renal
# A498 renal = system: A498 renal
# A549 NSCLC = system: A549 NSCLC
# ACHN renal = system: ACHN renal
# BT-549 breast = system: BT-549 breast
# CAKI-1 renal = system: CAKI-1 renal
# CCRF-CEM leukemia = system: CCRF-CEM leukemia
# COLO 205 colon = system: COLO 205 colon
# DU-145 prostate = system: DU-145 prostate
# EKVX NSCLC = system: EKVX NSCLC
# HCC-2998 colon = system: HCC-2998 colon
# HCT-116 colon = system: HCT-116 colon
# HCT-15 colon = system: HCT-15 colon
# HL-60(TB) leukemia = system: HL-60(TB) leukemia
# HOP-62 NSCLC = system: HOP-62 NSCLC
# HOP-92 NSCLC = system: HOP-92 NSCLC
# HS 578T breast = system: HS 578T breast
# HT29 colon = system: HT29 colon
# IGROV1 ovarian = system: IGROV1 ovarian
# K-562 leukemia = system: K-562 leukemia
# KM12 colon = system: KM12 colon
# LOX IMVI melanoma = system: LOX IMVI melanoma
# M14 melanoma = system: M14 melanoma
# MALME-3M melanoma = system: MALME-3M melanoma
# MCF7 breast = system: MCF7 breast
# MDA-MB-231 breast = system: MDA-MB-231 breast
# MDA-MB-435 = system: MDA-MB-435
# MOLT-4 leukemia = system: MOLT-4 leukemia
# NCI-H226 lung = system: NCI-H226 lung
# NCI-H23 lung = system: NCI-H23 lung
# NCI-H460 lung = system: NCI-H460 lung
# NCI-H522 lung = system: NCI-H522 lung
# NCI/ADR-RES ovarian = system: NCI/ADR-RES ovarian
# OVCAR-3 ovarian = system: OVCAR-3 ovarian
# OVCAR-4 ovarian = system: OVCAR-4 ovarian
# OVCAR-5 ovarian = system: OVCAR-5 ovarian
# OVCAR-8 ovarian = system: OVCAR-8 ovarian
# PC-3 prostate = system: PC-3 prostate
# RPMI-8226 leukemia = system: RPMI-8226 leukemia
# RXF 393 renal = system: RXF 393 renal
# SF-268 CNS = system: SF-268 CNS
# SF-295 CNS = system: SF-295 CNS
# SF-539 CNS = system: SF-539 CNS
# SK-MEL-2 melanoma = system: SK-MEL-2 melanoma
# SK-MEL-28 melanoma = system: SK-MEL-28 melanoma
# SK-MEL-5 melanoma = system: SK-MEL-5 melanoma
# SK-OV-3 ovarian = system: SK-OV-3 ovarian
# SN12C renal = system: SN12C renal
# SNB-19 CNS = system: SNB-19 CNS
# SNB-75 CNS = system: SNB-75 CNS
# SW-620 colon = system: SW-620 colon
# T-47D breast = system: T-47D breast
# TK-10 renal = system: TK-10 renal
# U251 CNS = system: U251 CNS
# UACC-257 melanoma = system: UACC-257 melanoma
# UACC-62 melanoma = system: UACC-62 melanoma
# UO-31 renal = system: UO-31 renal
smiles,measurement,setting,value
COCO[C@@H]1CC2C=Nc3cc(OCc4ccccc4)c(OC)cc3C(=O)N2C1 (some centres undefined),GI50,786-0 renal,1.3 µM
same,TGI,786-0 renal,30.9 µM
same,GI50,A498 renal,0.976 µM
same,TGI,A498 renal,3.25 µM
same,GI50,A549 NSCLC,0.468 µM
same,TGI,A549 NSCLC,9.15 µM
same,GI50,ACHN renal,0.338 µM
same,TGI,ACHN renal,1.71 µM
same,GI50,BT-549 breast,0.31 µM
same,TGI,BT-549 breast,2.39 µM
same,GI50,CAKI-1 renal,0.209 µM
same,TGI,CAKI-1 renal,0.513 µM
same,GI50,CCRF-CEM leukemia,0.313 µM
same,TGI,CCRF-CEM leukemia,21.6 µM
same,GI50,COLO 205 colon,0.181 µM
same,TGI,COLO 205 colon,0.386 µM
same,GI50,DU-145 prostate,0.426 µM
same,TGI,DU-145 prostate,5.24 µM
same,GI50,EKVX NSCLC,1.09 µM
same,TGI,EKVX NSCLC,4.85 µM
same,GI50,HCC-2998 colon,0.519 µM
same,TGI,HCC-2998 colon,2.63 µM
same,GI50,HCT-116 colon,0.66 µM
same,TGI,HCT-116 colon,26 µM
same,GI50,HCT-15 colon,0.844 µM
same,TGI,HCT-15 colon,6.56 µM
same,GI50,HL-60(TB) leukemia,0.486 µM
same,TGI,HL-60(TB) leukemia,> 100 µM
same,GI50,HOP-62 NSCLC,0.351 µM
same,TGI,HOP-62 NSCLC,2.8 µM
same,GI50,HOP-92 NSCLC,0.456 µM
same,TGI,HOP-92 NSCLC,6.83 µM
same,GI50,HS 578T breast,0.572 µM
same,TGI,HS 578T breast,4.97 µM
same,GI50,HT29 colon,0.4 µM
same,TGI,HT29 colon,> 100 µM
same,GI50,IGROV1 ovarian,0.436 µM
same,TGI,IGROV1 ovarian,20.5 µM
same,GI50,K-562 leukemia,0.45 µM
same,TGI,K-562 leukemia,> 100 µM
same,GI50,KM12 colon,0.578 µM
same,TGI,KM12 colon,10.6 µM
same,GI50,LOX IMVI melanoma,0.305 µM
same,TGI,LOX IMVI melanoma,10.4 µM
same,GI50,M14 melanoma,0.42 µM
same,TGI,M14 melanoma,1.39 µM
same,GI50,MALME-3M melanoma,0.37 µM
same,TGI,MALME-3M melanoma,2.79 µM
same,GI50,MCF7 breast,0.273 µM
same,TGI,MCF7 breast,> 35.4 µM
same,GI50,MDA-MB-231 breast,0.248 µM
same,TGI,MDA-MB-231 breast,1.57 µM
same,GI50,MDA-MB-435,0.455 µM
same,TGI,MDA-MB-435,1.86 µM
same,GI50,MOLT-4 leukemia,0.175 µM
same,GI50,NCI-H226 lung,2.88 µM
same,TGI,NCI-H226 lung,61.1 µM
same,GI50,NCI-H23 lung,0.672 µM
same,TGI,NCI-H23 lung,1.97 µM
same,GI50,NCI-H460 lung,0.36 µM
same,TGI,NCI-H460 lung,14.3 µM
same,GI50,NCI-H522 lung,0.152 µM
same,TGI,NCI-H522 lung,0.64 µM
same,GI50,NCI/ADR-RES ovarian,0.703 µM
same,TGI,NCI/ADR-RES ovarian,6.39 µM
same,GI50,OVCAR-3 ovarian,0.222 µM
same,TGI,OVCAR-3 ovarian,3.13 µM
same,GI50,OVCAR-4 ovarian,1.32 µM
same,TGI,OVCAR-4 ovarian,27.5 µM
same,GI50,OVCAR-5 ovarian,0.765 µM
same,TGI,OVCAR-5 ovarian,5.79 µM
same,GI50,OVCAR-8 ovarian,0.348 µM
same,TGI,OVCAR-8 ovarian,6.52 µM
same,GI50,PC-3 prostate,1.09 µM
same,TGI,PC-3 prostate,36.9 µM
same,GI50,RPMI-8226 leukemia,0.211 µM
same,TGI,RPMI-8226 leukemia,> 20.8 µM
same,GI50,RXF 393 renal,0.242 µM
same,TGI,RXF 393 renal,0.972 µM
same,GI50,SF-268 CNS,0.646 µM
same,TGI,SF-268 CNS,9.31 µM
same,GI50,SF-295 CNS,0.559 µM
same,TGI,SF-295 CNS,12.1 µM
same,GI50,SF-539 CNS,0.163 µM
same,TGI,SF-539 CNS,0.815 µM
same,GI50,SK-MEL-2 melanoma,0.49 µM
same,TGI,SK-MEL-2 melanoma,2.08 µM
same,GI50,SK-MEL-28 melanoma,1.6 µM
same,TGI,SK-MEL-28 melanoma,12.6 µM
same,GI50,SK-MEL-5 melanoma,0.357 µM
same,TGI,SK-MEL-5 melanoma,0.908 µM
same,GI50,SK-OV-3 ovarian,0.611 µM
same,TGI,SK-OV-3 ovarian,6.2 µM
same,GI50,SN12C renal,0.49 µM
same,TGI,SN12C renal,2.14 µM
same,GI50,SNB-19 CNS,1.06 µM
same,TGI,SNB-19 CNS,44.6 µM
same,GI50,SNB-75 CNS,1.09 µM
same,GI50,SW-620 colon,0.482 µM
same,TGI,SW-620 colon,8.61 µM
same,GI50,T-47D breast,0.154 µM
same,GI50,TK-10 renal,0.869 µM
same,GI50,U251 CNS,0.508 µM
same,TGI,U251 CNS,14.1 µM
same,GI50,UACC-257 melanoma,1.09 µM
same,GI50,UACC-62 melanoma,0.463 µM
same,TGI,UACC-62 melanoma,1.03 µM
same,GI50,UO-31 renal,0.237 µM
same,TGI,UO-31 renal,2.14 µM
